Test results: patent publication US9284288B2, “1-(p-tolyl) cyclopropyl substituted bridged spiro[2.4]heptane derivatives as ALX receptor agonists” (Actelion Pharmaceuticals Ltd., priority 2012, dated 2016)

Biological target: T1, recombinant human ALX receptor (Homo sapiens, UniProt P25090)
T1 construct: expressed in transfected cells; host or cells: HEK293
T1 sequence (P25090 1-351): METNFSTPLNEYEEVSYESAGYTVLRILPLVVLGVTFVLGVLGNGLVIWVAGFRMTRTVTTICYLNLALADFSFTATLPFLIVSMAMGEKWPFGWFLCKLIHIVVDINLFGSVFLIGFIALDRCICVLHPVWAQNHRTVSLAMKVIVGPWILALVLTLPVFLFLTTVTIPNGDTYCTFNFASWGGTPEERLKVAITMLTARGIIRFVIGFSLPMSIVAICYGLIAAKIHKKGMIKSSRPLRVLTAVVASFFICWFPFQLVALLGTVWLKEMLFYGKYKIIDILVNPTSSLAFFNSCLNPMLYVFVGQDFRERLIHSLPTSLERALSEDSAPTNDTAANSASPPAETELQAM
Test: Intracellular calcium measurements (FLIPR), ALX receptor agonistic activity
Type: cell-based
Conditions: HEK293-hALXR-Gα16 cells; normalized to WKYMVm 10 nM; read-out: EC50 (agonistic activity with respect to the ALX receptor)
Experimental: The ALX receptor agonistic activity of the compounds of formula (I) is determined in accordance with the following experimental method.
Cells expressing recombinant human ALX receptor and the G-protein Gα16 (HEK293-hALXR-Gα16) were grown to 80% confluency in Growing Medium (GM). Cells were detached from culture dishes with a cell dissociation buffer (Invitrogen, 13151-014), and collected by centrifugation at 1′000 rpm at rt for 5 min in Assay Buffer (AB) (equal parts of Hank's BSS (Gibco, 14065-049) and DMEM without Phenol Red (Gibco, 11880-028)). After 60 min incubation at 37° C. under 5% CO2 in AB supplemented with 1 μM Fluo-4 (AM) (Invitrogen, F14202) and 20 mM HEPES (Gibco, 15630-056), the cells were washed and resuspended in AB. They were then seeded onto 384-well FLIPR assay plates (Greiner, 781091) at 50,000 cells in 70 μl per well and sedimented by centrifugation at 1,000 rpm for 1 min. Stock solutions of test compounds were made up at a concentration of 10 mM in DMSO, and serially diluted in AB to concentrations required for activation dose response curves. WKYMVm (Phoenix Peptides) was used as a reference agonist. […] Changes in fluorescence were monitored before and after the addition of test compounds at lex=488 nm and lem=540 nm. […]

Compound: Cc1ccc(C2(NC(=O)C3C(C(=O)NCCCCN4CCCC4)C4CCC3C43CC3)CC2)cc1 [Example 1, (5R)-N^5-(1-(p-tolyl)cyclopropyl)-(6R)-N^6-(4-(pyrrolidino)butyl)-(4S,7R)-[4,7-ethylene-spiro[2.4]heptane]-5,6-dicarboxamide]
- EC50: 4 nM
